A word on the LD50: it is the dose expected to kill half of the subjects tested.

This series in a line: Acute toxicity in mice after oral administration. The following applies: mouse, in vivo.

A value given as a limit tells only on which side of the number the result lay.

As for `C=C1C[C@@]23CC[C@H]4[C@@](C)(CCC[C@@]4(C)C(=O)O[C@@H]4O[C@H](CO)[C@@H](O)[C@H](O)[C@H]4O)[C@@H]2CC[C@]1(O[C@@H]1O[C@H](CO)[C@@H](O)[C@H](O)[C@H]1O[C@@H]1O[C@H](CO)[C@@H](O)[C@H](O)[C@H]1O)C3` [STEVIOSIDE], the median lethal dose (LD50) is above 8200 mg/kg. Further, under “read-out: LD50”, the LD50 is above 15000 mg/kg.
